Test system: clinically stable subjects with schizophrenia
Assay: Clinical Study A: CANTAB cognition battery
Assay type: in vivo, human
Conditions: 10 mg and 25 mg
Excerpt: A Phase 2a proof-of-concept (POC) study in clinically stable subjects with schizophrenia who were clinically stable and received stable doses of atypical antipsychotic therapy. The study was a Phase 2, multi-center, randomized, double-blind, placebo-controlled, parallel group study designed to evaluate the safety and efficacy of doses of (4s)-4-(5-phenyl-1,3,4-thiadiazol-2-yloxy)-1-azatricyclo[3.3.1.1^3,7]decane (Compound A) in clinically stable male and female subjects (ages 20 to 55, inclusive) with a Diagnostic and Statistical Manual of Mental Disorders Fourth Edition, Text Revision (DSM-IV-TR) diagnosis of schizophrenia. […] The criteria for clinical stability was determined by a combination of retrospective data (over the 4 months prior to the start of Screening, which will be supported by clinical records, patient, identified responsible contact person, and physician interviews), and prospective data assessed during the Prospective Stabilization Period of 28 to 42 days duration. […]
The primary endpoint was the MCCB composite score, and the primary endpoint analysis was the change on the MCCB composite score from baseline to endpoint versus placebo. Other secondary measures included the MCCB domains, the NSA-16, the CANTAB cognition battery (measured at different time points from the MCCB), and the UPSA-2. […]

Structure (SMILES): c1ccc(-c2nnc(O[C@@H]3C4CC5C[C@H]3C[N@](C5)C4)s2)cc1 [Compound A, (4s)-4-(5-phenyl-1,3,4-thiadiazol-2-yloxy)-1-azatricyclo[3.3.1.1^3,7]decane]
- CANTAB battery results relative to MCCB results: consistent

— US20130317055A1, “NEURONAL NICOTINIC AGONIST AND METHODS OF USE” (ABBVIE INC., priority 2012, published 2013)
